{"source": "paper PMC10229078", "about": "“In vitro effects of lapachol and β-lapachone against Leishmania amazonensis” (Brazilian Journal of Medical and Biological Research, 2023)", "key": {"[1]": {"test_system": "Leishmania amazonensis promastigotes", "assay": "Viability assay of promastigotes, XTT colorimetric method (LD50)", "format": "cell-based, Leishmania amazonensis (MHOM/BR/1977/LTB0016)", "details": "25°C", "method": "The viability of L. amazonensis (MHOM/BR/1977/LTB0016) promastigotes was evaluated using the XTT colorimetric method, which consists in the XTT salt degradation by the mitochondria forming formazan crystals. Promastigote forms (2×10^7 parasites/mL) from a culture in logarithmic growth phase were incubated with lapachol and β-lapachone diluted in 199 culture medium. The drugs were diluted in series, in a ratio of two, starting from 1/2, on a 96-well cell culture plate (TPP™ test plate, Switzerland). The compounds were tested at concentrations from 204.4 to 0.40 µg/mL (lapachol) and 157.5 to 0.31 µg/mL (β-lapachone). After 24, 48, and 72 h of incubation at 25°C, 100 μL of the XTT solution (500 μg/mL) activated with PMS (50 μg/mL) were added to each well and incubated for 4 h at 37°C. The result was measured by absorbance, determined by spectrophotometry (450/650 nm filter, VersaMax™ ELISA microplate reader, USA). The lethal dose (LD50) was defined as the concentrations of the compounds that reduced survival of L. amazonensis by 50% compared to untreated parasites in culture medium. AmB (1.96 to 0.25 µg/mL) was used as positive control of leishmanicidal activity. The therapeutic selectivity index (TSI CC50/LD50) was calculated by the ratio of toxicity to macrophage vs toxicity to parasites after 24 h incubation ([28]). All assays were performed in triplicate and repeated at least three times."}, "[2]": {"test_system": "L. amazonensis amastigotes", "protocol": "The activity of lapachol and β-lapachone on intracellular amastigotes was made on peritoneal macrophages (5×10^5 per well). Cells were seeded onto round glass coverslips within 24-well plates in RPMI 1640 medium and incubated for 2 h at 37°C in 5% CO2. After that, the proportion of 6 parasites (L. amazonensis) per macrophage were added, and cultures were incubated for 4 h at 37°C in 5% CO2. Free parasites were removed by washing with RPMI 1640 medium. The infected macrophages were incubated with lapachol (82.28, 41.14, and 20.57 µg/mL) and β-lapachone (3.26, 1.63, and 0.815 µg/mL) for 24 h at 37°C. After the incubation time, the coverslips were removed, washed, stained with Fast Panoptic, and fixed on glass slides with Entellan. […] The experiments were done twice in triplicate, and treated uninfected cells were used as the cytotoxicity control and non-treated infected cells were used as the positive control of infection. The number of intracellular amastigotes was determined by counting 200 macrophages by concentration in an optical microscope (binocular biological microscope, mod. BA310E LED, Motic, Spain). The infection index was calculated by multiplying the percentage of infected macrophages by the number of parasites per macrophages ([29])."}, "[3]": {"test_system": "amastigotes of L. (V.) braziliensis (MHOM/BR/94/H-3227)", "design": "method as in ref 18 Teixeira et al.", "details": "50 µg/mL, ref 18 Teixeira et al.; cited from earlier work"}, "[4]": {"test_system": "L. amazonensis promastigotes", "assay": "DNA fragmentation assay, agarose gel electrophoresis", "format": "cell-based, Leishmania amazonensis", "details": "IC50/24 h (lapachol 76.62 µg/mL, β-lapachone 1.63 µg/mL)", "method": "The presence of DNA fragmentation was evaluated by electrophoresis in agarose gel according to a previous study ([33]). L. amazonensis (1×10^6 promastigotes/mL) was incubated with the IC50 of compounds for 24 h. After validation of IC50 as mentioned above, pellets were re-suspended in digestion buffer (10 mM ethylenediamine tetraacetic acid [EDTA], 50 mM Tris-HCl [pH 8.0] and 0.5% sodium lauryl sulfate), to which 0.5 mg/mL proteinase K was added. The mixture was incubated for 3 h in […] and again for 1 h at 55°C in the presence of 0.1 mg/mL RNase A. DNA material was extracted by phenol/chloroform (1:1) treatment and was precipitated by adding 3 M sodium acetate and ice-cold ethanol (100%). After an overnight incubation at -20°C, the material was centrifuged (13270 g) for 30 min at 25°C temperature. Then, 2.5 volumes of ethanol (70%) were added to the pellet. The material was centrifuged (13270 g) for 15 min again and the pellet was collected, air dried, and re-suspended in Tris-EDTA buffer (50 µL, pH 8.0). DNA aliquots (10 µg) were electrophoresed on 2% agarose gel that contained ethidium bromide (0.5 µg/mL) using Tris-acetate-EDTA buffer (pH 8.0) for 45 min at 100 V and photographed under ultraviolet light. L. amazonensis untreated promastigotes were used as negative control of fragmentation (C-) and promastigotes treated with H2O2 as positive control (C+). […]"}, "[5]": {"assay": "Macrophage cytotoxicity, XTT, J774A.1", "details": "mouse, J774A.1 macrophages"}, "[6]": {"test_system": "Leishmania major promastigotes", "design": "method as in ref 24 Moreno et al.", "details": "48 h of incubation, ref 24 Moreno et al.; cited from earlier work"}}, "note": "Several values for one entry are separate records, joined by “and”; a condition that tells them apart may be missing. Equal values may be shown once."}
{"molecule": "4-hydroxy-3-(3-methylbut-2-enyl)naphthalene-1,2-dione [lapachol]", "values": [{"measurement": "Promastigotes LD50", "setting": "[1]; 24 h incubation", "result": 75.60, "unit": "µg/mL"}, {"measurement": "Promastigotes LD50", "setting": "[1]; 24 h incubation, listed as Lapachol (1)", "result": "75.60 ± 6.12", "unit": "µg/mL"}, {"measurement": "Promastigotes LD50", "setting": "[1]; 48 h incubation", "result": "72.82 µg/mL and 72.82 ± 12.99 µg/mL"}, {"measurement": "Promastigotes LD50", "setting": "[1]; 72 h incubation", "result": "58.85 µg/mL and 58.85 ± 6.43 µg/mL"}, {"measurement": "inhibition", "setting": "[2]", "result": 57.6, "unit": "%"}, {"measurement": "Inhibition of the infection rate of amastigotes", "setting": "[3]", "result": 88.8, "unit": "%"}, {"measurement": "DNA fragmentation", "setting": "[4]", "result": "promoted DNA fragmentation"}]}
{"molecule": "CC1(C)CCC2=C(O1)c1ccccc1C(=O)C2=O", "note": "[β-lapachone, 2,2-dimethyl-3,4-dihydrobenzo[h]chromene-5,6-dione]", "values": [{"measurement": "Promastigotes LD50", "setting": "[1]; 24 h incubation", "result": "0.65 µg/mL and 0.65 ± 0.18 µg/mL"}, {"measurement": "Promastigotes LD50", "setting": "[1]; 24 h incubation, listed as β-lapachone (2)", "result": "0.65 ± 0.18", "unit": "µg/mL"}, {"measurement": "Promastigotes LD50", "setting": "[1]; 48 h incubation", "result": "1.24 µg/mL and 1.24 ± 0.19 µg/mL"}, {"measurement": "Promastigotes LD50", "setting": "[1]; 72 h incubation", "result": "0.71 µg/mL and 0.71 ± 0.03 µg/mL"}, {"measurement": "CC50 at 24 h", "setting": "[5]", "result": "3.18 ± 0.04", "unit": "µg/mL"}, {"measurement": "DNA fragmentation", "setting": "[4]", "result": "promoted DNA fragmentation"}, {"measurement": "IC50", "setting": "[6]", "result": "1500 ± 700", "unit": "nM"}]}
